Source: patent US8629149B2, “Oxopiperazine derivatives for the treatment of pain and epilepsy” (Zalicus Pharmaceuticals Ltd., priority 2009, dated 2014)

How the values were obtained:
[1] = system: Lamina I/II spinal cord neurons; experiment: Lamina assay: current-clamp recordings on lamina I/II spinal cord neurons; format: cell-based, rat; details: lamina I and II neurons
Excerpt: Male Wistar rats (P6 to P9 for voltage-clamp and P15 to P18 for current-clamp recordings) were anaesthetized through intraperitoneal injection of Inactin (Sigma). The spinal cord was then rapidly dissected out and placed in an ice-cold solution protective sucrose solution containing (in mM): 50 sucrose, 92 NaCl, 15 D-Glucose, 26 NaHCO3, 5 KCl, 1.25 NaH2PO4, 0.5 CaCl2, 7 MgSO4, 1 kynurenic acid, and bubbled with 5% CO2/95% O2. The meninges, dura, and dorsal and ventral roots were then removed from the lumbar region of the spinal cord under a dissecting microscope. The “cleaned” lumbar region of the spinal cord was glued to the vibratome stage and immediately immersed in ice cold, bubbled, sucrose solution. For current-clamp recordings, 300 to 350 μm parasagittal slices were cut to preserve the dendritic arbour of lamina I neurons, while 350 to 400 μm transverse slices were prepared for voltage-clamped Nav channel recordings. Slices were allowed to recover for 1 hour at 35° C. in Ringer solution containing (in mM): 125 NaCl, 20 D-Glucose, 26 NaHCO3, 3 KCl, 1.25 NaH2PO4, 2 CaCl2, 1 MgCl2, 1 kynurenic acid, 0.1 picrotoxin, bubbled with 5% CO2/95% O2. The slice recovery chamber was then returned to room temperature (20 to 22° C.) and all recordings were performed at this temperature. […]

human Nav1.5 channel = biological target: T1, human Nav1.5 channel (Homo sapiens, UniProt Q14524); experiment: Nav1.5 sodium channel screening assay (PatchXpress, cardiac action potential waveform); format: cell-based
T1 construct: expressed in transfected cells; host or cells: HEK cells
Protocol: Inhibition of the TTX-resistant Nav1.5 sodium channel, a key cardiac ion channel, can have profound effects on the duration and amplitude of the cardiac action potential and can result in arrhythmias and other heart malfunctions. To assess the potential cardiac liability of compounds at an early stage in the drug discovery process, a Nav1.5 sodium channel screening assay is performed on Molecular Device's PatchXpress™ automated electrophysiology platform. Under voltage-calmp conditions, Nav1.5 currents are recorded from HEK cells expressing the human Nav1.5 channel in the absence and presence of increasing concentrations of the test compound to obtain an IC50 value. The external recording solution contained (in mM): 90 TEACl, 50 NaCl, 1.8 CaCl, 1 MgCl2, 10 HEPES, 10 glucose, adjusted to pH 7.4 with TEA-OH and to 300 mOsm with sucrose (if necessary), while the internal patch pipette solution contained (in mM): 129 CsF, 2 MgCl2, 11 EGTA, 10 HEPES, 3 Na2ATP adjusted to pH 7.2 with CsOH and to 290 mOsm with sucrose (if necessary). Nav1.5 channel currents were evoked using a cardiac action potential waveform at 1 Hz, digitized at 31.25 kHz and low-pass filtered at 12 kHz.

[2] = Rat Early Pharmacokinetic (EPK) study; format: in vivo; details: 3 mg/kg PO, PG (propylene glycol)
Protocol: Male Sprague-Dawley rats were dosed via oral (PO) gavage in the detailed formulation. Blood samples were collected from the animals at 6 timepoints out to 4 hours post-dose. Pharmacokinetic analysis was performed on the LC-MS/MS measured concentrations for each timepoint of each compound.

Mouse rotarod assay = format: in vivo; details: mouse, in vivo, mice
Protocol: To assess a compound's undesirable side effects (toxicity), animals were monitored for overt signs of impaired neurological or muscular function. In mice, the rotarod procedure (Dunham and Miya, J. Am. Pharmacol. Assoc. 46:208-209 (1957)) is used to disclose minimal muscular or neurological impairment (MMI). When a mouse is placed on a rod that rotates at a speed of 6 rpm, the animal can maintain its equilibrium for long periods of time. The animal is considered toxic if it falls off this rotating rod three times during a […].

T1 sequence (Q14524 whole entry): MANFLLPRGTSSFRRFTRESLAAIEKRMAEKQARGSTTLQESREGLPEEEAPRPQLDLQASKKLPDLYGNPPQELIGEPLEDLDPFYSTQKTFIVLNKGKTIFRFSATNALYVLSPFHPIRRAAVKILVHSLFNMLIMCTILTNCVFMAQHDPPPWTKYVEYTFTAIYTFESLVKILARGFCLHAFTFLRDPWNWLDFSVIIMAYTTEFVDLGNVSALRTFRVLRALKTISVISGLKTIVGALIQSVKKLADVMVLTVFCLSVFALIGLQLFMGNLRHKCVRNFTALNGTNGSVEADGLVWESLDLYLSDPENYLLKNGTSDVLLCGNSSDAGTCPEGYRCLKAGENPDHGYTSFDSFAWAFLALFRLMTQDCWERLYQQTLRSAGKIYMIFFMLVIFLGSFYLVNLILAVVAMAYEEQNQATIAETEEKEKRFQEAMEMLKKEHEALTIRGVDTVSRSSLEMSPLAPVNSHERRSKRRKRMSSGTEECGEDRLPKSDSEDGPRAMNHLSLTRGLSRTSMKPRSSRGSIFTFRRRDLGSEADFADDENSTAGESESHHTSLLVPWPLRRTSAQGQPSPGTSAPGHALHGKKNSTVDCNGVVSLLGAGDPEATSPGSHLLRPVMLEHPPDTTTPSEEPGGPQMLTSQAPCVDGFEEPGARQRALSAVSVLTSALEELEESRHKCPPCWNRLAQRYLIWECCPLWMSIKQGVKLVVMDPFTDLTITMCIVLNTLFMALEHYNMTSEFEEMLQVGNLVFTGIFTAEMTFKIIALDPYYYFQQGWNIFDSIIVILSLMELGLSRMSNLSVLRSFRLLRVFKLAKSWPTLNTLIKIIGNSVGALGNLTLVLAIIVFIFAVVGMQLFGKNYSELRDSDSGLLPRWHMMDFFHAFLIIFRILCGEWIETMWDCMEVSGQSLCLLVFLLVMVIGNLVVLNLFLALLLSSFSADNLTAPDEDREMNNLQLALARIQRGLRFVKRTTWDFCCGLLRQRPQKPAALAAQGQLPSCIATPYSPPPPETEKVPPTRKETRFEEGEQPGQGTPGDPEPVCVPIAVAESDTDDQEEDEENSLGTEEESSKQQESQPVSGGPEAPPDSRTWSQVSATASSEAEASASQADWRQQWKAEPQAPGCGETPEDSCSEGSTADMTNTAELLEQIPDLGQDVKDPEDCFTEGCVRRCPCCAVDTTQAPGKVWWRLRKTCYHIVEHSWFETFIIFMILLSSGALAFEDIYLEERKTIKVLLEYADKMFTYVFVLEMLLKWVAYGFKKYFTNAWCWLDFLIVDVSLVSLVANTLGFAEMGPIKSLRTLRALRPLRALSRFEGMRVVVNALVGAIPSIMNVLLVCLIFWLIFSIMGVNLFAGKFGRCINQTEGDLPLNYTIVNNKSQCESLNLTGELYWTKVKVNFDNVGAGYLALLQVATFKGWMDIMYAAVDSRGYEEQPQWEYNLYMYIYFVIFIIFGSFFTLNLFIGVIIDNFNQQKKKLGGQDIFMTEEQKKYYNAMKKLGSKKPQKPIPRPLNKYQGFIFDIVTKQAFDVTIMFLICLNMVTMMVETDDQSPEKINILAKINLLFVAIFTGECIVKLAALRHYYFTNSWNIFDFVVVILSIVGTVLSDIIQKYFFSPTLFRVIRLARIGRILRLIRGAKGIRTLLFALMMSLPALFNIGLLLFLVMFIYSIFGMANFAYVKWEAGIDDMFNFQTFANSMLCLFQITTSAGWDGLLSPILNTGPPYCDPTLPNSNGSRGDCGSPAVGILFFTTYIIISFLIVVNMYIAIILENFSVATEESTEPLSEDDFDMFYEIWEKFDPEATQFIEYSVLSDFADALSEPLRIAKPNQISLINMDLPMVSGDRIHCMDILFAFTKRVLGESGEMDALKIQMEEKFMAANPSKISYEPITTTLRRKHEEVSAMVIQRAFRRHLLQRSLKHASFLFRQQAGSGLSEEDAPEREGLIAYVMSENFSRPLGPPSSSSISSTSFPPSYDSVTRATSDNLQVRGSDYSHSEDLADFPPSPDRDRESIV

| Compound | % Spike Change (Mean; % change from control) [1] [%] | Inhibition of the cardiac Nav 1.5 channel (statement) (human Nav1.5 channel; HEK cells expressing human Nav1.5) | IC50 (human Nav1.5 channel; cardiac action potential waveform at 1 Hz, read-out: HNAV 1.5 CARDIAC AP 1 Hz IC50) [µM] | Dose Normalized AUC [2] [nM·h] | Dose Normalized Cmax [2] [nM] | Tmax ([2]; male, Sprague-Dawley, blood) [min] | TD50 (Mouse rotarod assay) [mg/kg] |
| --- | --- | --- | --- | --- | --- | --- | --- |
| O=C1CN(C(=O)CC(c2ccc(Cl)cc2)c2ccc(Cl)cc2)CCN1 [Compound 3, 4-(3,3-bis(4-chlorophenyl)propanoyl)piperazin-2-one] | 28.7 | – | – | – | – | – | – |
| O=C1CN(C(=O)CC(c2ccccc2)c2ccccc2)CCN1 [Compound 4, 4-(3,3-diphenylpropanoyl)piperazin-2-one] | −5.3 | did not act as inhibitors | ≥ 300 | 522 | 832 | 15 | 370 |
